From publication PMC4784888, “Activity Based High-Throughput Screening for Novel O-GlcNAc Transferase Substrates Using a Dynamic Peptide Microarray” (PLoS ONE, 2016)

What was measured:
[1] = molecular target: T1, m-OGT (mitochondrial isoform of O-GlcNAc transferase) (human) (UniProt O15294)
T1 sequence: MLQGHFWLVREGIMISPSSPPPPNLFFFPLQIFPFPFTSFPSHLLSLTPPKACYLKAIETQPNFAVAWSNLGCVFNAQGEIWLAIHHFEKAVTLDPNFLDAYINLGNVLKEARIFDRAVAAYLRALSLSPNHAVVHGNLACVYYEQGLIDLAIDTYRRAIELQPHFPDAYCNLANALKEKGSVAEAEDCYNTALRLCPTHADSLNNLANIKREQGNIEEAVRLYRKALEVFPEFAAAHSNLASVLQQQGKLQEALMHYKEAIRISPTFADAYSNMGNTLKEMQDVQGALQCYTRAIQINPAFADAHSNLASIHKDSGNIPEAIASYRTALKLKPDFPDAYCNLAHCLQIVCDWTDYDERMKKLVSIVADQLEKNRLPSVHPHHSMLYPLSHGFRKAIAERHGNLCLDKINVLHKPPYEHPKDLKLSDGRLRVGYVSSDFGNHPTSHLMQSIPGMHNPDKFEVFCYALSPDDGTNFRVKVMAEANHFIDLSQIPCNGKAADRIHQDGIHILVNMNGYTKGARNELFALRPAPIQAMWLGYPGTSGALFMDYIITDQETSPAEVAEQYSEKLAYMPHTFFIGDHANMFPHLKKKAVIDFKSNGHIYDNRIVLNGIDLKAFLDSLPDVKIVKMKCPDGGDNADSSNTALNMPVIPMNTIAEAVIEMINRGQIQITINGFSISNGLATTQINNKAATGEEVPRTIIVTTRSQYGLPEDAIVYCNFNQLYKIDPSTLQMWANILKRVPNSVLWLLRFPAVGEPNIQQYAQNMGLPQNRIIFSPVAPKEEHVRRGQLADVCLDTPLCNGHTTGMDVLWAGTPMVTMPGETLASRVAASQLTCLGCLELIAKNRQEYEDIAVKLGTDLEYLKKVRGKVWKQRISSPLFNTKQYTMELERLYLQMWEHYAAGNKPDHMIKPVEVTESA

[2] = test system: s-OGT; assay: O-GlcNAcylation on kinase substrate peptide microarray, s-OGT; format: biochemical, human; settings: bacterial lysate containing s-OGT (7 μg/μL), 1 mM UDP-GlcNAc, 50 mM Tris-HCl pH 7.5, 30°C, FITC antibody fluorescence, corrected for signal without UDP-GlcNAc
Method: (§1) Plasmids encoding s-OGT, m-OGT, and nc-OGT are generous gifts from John A. Hanover (National Institute of Health, USA). OGT overexpression was carried out as previously described. All the plasmids were transformed into E.coli BL21 (DE3) competent cells to produce a cell lysate containing OGT for use or for further purification. Briefly, inoculated a single colony into 50 ml of LB broth media containing 50 μg/ml ampicillin and cells were grown overnight at 37°C with vigorous shaking. 50 mL of the start culture was added into 1L LB broth media containing 50 μg/mL ampicillin and it was incubated with shaking at 200 rpm at 37°C until A600 reached 0.4–0.6. After the culture was cooled to room temperature, 0.5 mM IPTG was added into the culture to induce protein expression. After 16 hours, the cells were collected by centrifugation for 10 min at 4000 RPM at 4°C. The pellets were lysed in lysis buffer containing 20 mM Tris-HCl, pH 7.5, 1 mg/mL lysome, 0.1% triton x-100 and complete mini EDTA-free protease inhibitor cocktail on ice for 10 min and the lysate was sonicated until the DNA was completely sheared. After centrifugation for 10 min at 12000 rpm at 4°C, the supernatant was carefully transferred into a clean tube and was ready for the array assay or for further purification. Protein expression was determined by coomassie blue staining and western blotting using an anti-OGT antibody.
(§2) Peptide O-GlcNAcylation was assessed using PamChip 4 microarray chips with a PamStation 12 instrument (Pamgene international, The Netherlands). The OGT enzyme reaction was prepared essentially as described[26] with minor modifications. Briefly, before addition of the enzyme reaction, the microarray was blocked with blocking buffer (1% BSA in TBS). After 30 cycles (2 cycles/min) blocking, the blocking buffer was aspirated and the microarray was incubated with 40 μL of the enzyme reaction containing OGT (lysate or purified), OGT reaction buffer (50 mM Tris—HCl, pH 7.5;1 mM DTT;12.5 mM MgCl2), a 1:1 pre-incubated mixture of anti-O-GlcNAc and FITC conjugated secondary antibody, and the sugar donor UDP-GlcNAc or water as a control for 480 cycles (2 cycles/min) at 30°C. The microarray was run in parallel by pumping the reaction up and down through the porous membrane at every cycle and a tiff image was obtained at every 20 cycles by a CCD camera inside the PamStation. O-GlcNAcylation of each peptide was detected by a fluorescent signal which was produced by an FITC conjugated antibody bound to the O-GlcNAc moiety on the peptide.
(§3) Image analysis was performed using BioNavigator 6 software (Pamgene international, The Netherlands). Briefly, each image was quantified by automated array grid finding and subsequent quantification of signal and local background for each individual spot. In this work, the signal median-minus-background value was used as the quantitative parameter for the O-GlcNAcylation of the peptide.
(§4) Dynamic peptide microarray (PamChip) technology has been successfully and widely used for kinase activities profiling in the last decade. In the present work, we describe, for the first time, the utility of this peptide microarray format for the identification of human OGT activity. Due to the fact that O-GlcNAcylation and phosphorylation may occur at the same or proximal amino acids on the same protein [9], a peptide microarray of 144 peptides derived from different kinase substrates (S1 Appendix) was selected for an initial test. […] O-GlcNAcylation of peptides in each individual spot was detected by a fluorescent signal produced by the FITC labelled antibody recognizing the O-GlcNAcylated amino acids of converted peptides. Kinetic activity was measured through scanning the signal at regular intervals.
(§5) Fig 2 Identification of human OGT substrates from a kinase substrate and nuclear hormone receptor interaction peptide microarray. […]

[3] = test system: m-OGT; assay: O-GlcNAcylation on kinase substrate peptide microarray, m-OGT; format: biochemical, human; settings: bacterial lysate containing m-OGT (7 μg/μL), 1 mM UDP-GlcNAc, 50 mM Tris-HCl pH 7.5, 30°C, FITC antibody fluorescence, corrected for signal without UDP-GlcNAc
Method: as §1, §2, §3, §4, §5

[4] = test system: nc-OGT; assay: O-GlcNAcylation on kinase substrate peptide microarray, nc-OGT; format: biochemical, human; settings: bacterial lysate containing nc-OGT (7 μg/μL), 1 mM UDP-GlcNAc, 50 mM Tris-HCl pH 7.5, 30°C, FITC antibody fluorescence, corrected for signal without UDP-GlcNAc
Method: as §1, §2, §3, §4, §5

[5] = test system: OGT (s-OGT, m-OGT, nc-OGT); assay: O-GlcNAcylation on kinase substrate peptide microarray, three isoforms taken together; format: biochemical, human; settings: for O-GlcNAcylation by all three isoforms OGT: kinase substrate microarray, bacterial lysates s-, m-, nc-OGT, 1 mM UDP-GlcNAc
Method: as §1, with “The pellets were lysed in lysis buffer containing 20 mM Tris-HCl, pH 7.5, 1 mg/mL lysome, 0.1% triton x-100 and complete mini EDTA-free protease inhibitor cocktail on ice for 10 min and the lysate was sonicated until the DNA was completely sheared.” left out
(§6) Peptide O-GlcNAcylation was assessed using PamChip 4 microarray chips with a PamStation 12 instrument (Pamgene international, The Netherlands). […] O-GlcNAcylation of each peptide was detected by a fluorescent signal which was produced by an FITC conjugated antibody bound to the O-GlcNAc moiety on the peptide.
as §3
Dynamic peptide microarray (PamChip) technology has been successfully and widely used for kinase activities profiling in the last decade. […] Kinetic activity was measured through scanning the signal at regular intervals. […]

[6] = test system: m-OGT; assay: Validation of RBL-2 peptide O-GlcNAcylation on microarray, dependency on UDP-GlcNAc and m-OGT lysate; format: biochemical, human
Method: as §1, with “After 16 hours, the cells were collected by centrifugation for 10 min at 4000 RPM at 4°C. The pellets were lysed in lysis buffer containing 20 mM Tris-HCl, pH 7.5, 1 mg/mL lysome, 0.1% triton x-100 and complete mini EDTA-free protease inhibitor cocktail on ice for 10 min and the lysate was sonicated until the DNA was completely sheared.” left out
as §6, with “peptide. […]” for “peptide.”

[7] = test system: purified m-OGT; assay: Ala scan of RBL-2_410–422 on peptide microarray; format: biochemical, human; settings: microarray; 1 mM UDP-GlcNAc, 0.2 μg/μL purified m-OGT
Method: (§7) One step OGT purification was performed using His60 Ni Gravity Flow Columns (Clontech) according to the manufacturer’s instructions. Briefly, the nickel column was equilibrated with a buffer containing 50 mM sodium phosphate, 300 sodium chloride, 20 mM imidazole, and pH 7.4, followed by incubation with cell lysate containing His tag OGT for 1h at 4°C. After washing several times using buffer containing 50 mM sodium phosphate, 300 sodium chloride, 40 mM imidazole, and pH 7.4, the recombinant OGT was eluted using elution buffer containing 50 mM sodium phosphate, 300 mM sodium chloride, 300 mM imidazole, and pH 7.4. The eluted fraction was concentrated through a 100,000 Da molecular weight cut off Amicon unit by centrifugation 10 min at 5000 RPM at 4°C.
as §2, §3
Synthesis of all the peptides was achieved by following a standard Fmoc SPPS strategy on a Symphony Multiple Peptide Synthesizer and starting from rink amide resin. The following Fmoc amino acids were used: Fmoc-Cys(Trt)-OH, Fmoc-Gly-OH, Fmoc-Lys(Boc)-OH, Fmoc-Glu(Otbu)-OH, Fmoc-Asn(Trt)-OH, Fmoc-Ser(tBu)-OH, Fmoc-Thr(tBu)-OH, Fmoc-Ala-OH, Fmoc-Pro-OH, Fmoc-Val-OH. Deprotection was performed using 20% piperidine in DMF, and coupling was performed using 1:0.9:2 amino acid/ HBTU/DIPEA in DMF. After completion of the synthesis, the protected peptidyl resins were incubated with a 10 mL mixture of TFA (trifluoroacetic acid): H2O: triisopropylsilane (TIPS): 1, 2-ethanedithiol (EDT) (9:0.5:0.25:0.25, v/v/v/v) and allowed to stir for 2 h at room temperature under a nitrogen atmosphere. The cleaving mixture was filtered and the resin was washed with TFA (2 mL) and DCM (4 mL). The residue was precipitated by treatment of precooled diethyl ether and centrifugation. Two times washing and centrifugation yielded the crude products in a pellet. The precipitated peptides were dissolved in water, frozen, and lyophilized. All products were stored at -20°C. Crude peptide analysis was carried out by LC-MS.
To further confirm this and investigate the role of this and surrounding amino acid residues in our activity based assay, we resynthesized the RBL-2 peptide present on the microarray and performed an Ala scan, thus replacing of all the possible O-GlcNAc sites (Ser and Thr) in RBL-2_420–422 (Fig 4A). To immobilize the peptides on the chip, all the peptides were prepared with an extra CG at the NH2 terminal to allow immobilization on the maleimide-based chip surface. […]

[8] = test system: purified m-OGT; assay: Inhibition of RBL-2_410–422 O-GlcNAcylation by known OGT inhibitor on microarray; format: biochemical, human; settings: 200 μM ST045849, purified m-OGT (0.2 μg/μL), 1 mM UDP-GlcNAc
Method: as §7, with “The eluted fraction was concentrated through a 100,000 Da molecular weight cut off Amicon unit by centrifugation 10 min at 5000 RPM at 4°C.” left out
as §6
as §3, with “peptide. […]” for “peptide.”

[9] = test system: OGT; settings: known OGT inhibitor; ref [31]; read-out: reported IC50; cited from earlier work
From the text: Its interesting biology motivated us to further focus on the validation of RBL-2 O-GlcNAcylation in the following work. Kinetic signals of the GlcNAcylation were collected to fully understand the O-GlcNAcylation of RBL-2_420–422.

Row | Compound | OGT isoforms activity, s [2] | OGT isoforms activity, m [3] | OGT isoforms activity, nc [4] | O-GlcNAcylation by all three isoforms OGT [5] | further results
1 | RBL-2_410–422 T421A peptide (from UniProt Q08999 410-422) |  |  |  |  | decrease of the O-GlcNAcylation of the immobilised peptide by purified m-OGT (0.2 μg/μL, 1 mM UDP-GlcNAc), peptide microarray, against the control peptide (wild type with C415A) [1]: 40%
2 | KENSPCVTPVSTA [RBL-2_410_422, kinase substrate microarray peptide …] | P (Signal greater than 5% of the highest signal was defined as positive (P)) | P (Signal greater than 5% of the highest signal was defined as positive (P)) | P (Signal greater than 5% of the highest signal was defined as positive (P)) |  | Rank as hit in screening assay ([5]; peptide microarray screening): best hit in our screening assay; O-GlcNAcylation versus amount of m-OGT lysate ([6]; bacterial lysate containing m-OGT 0, 1.7, 3.5, 7 μg/μL, 1 mM UDP-GlcNAc): increased with increasing amounts of bacterial lysate containing recombinant m-OGT; O-GlcNAcylation rate versus UDP-GlcNAc concentration ([6]; bacterial lysate containing m-OGT (7 μg/μL), UDP-GlcNAc 0–10 mM): increased upon the addition of increasing concentrations of the donor UDP-GlcNAc; OGT activity of wild type compared with C415A, microarray [7]: dramatic decrease of activity comparing with C415A peptide
3 | LSAFRRTSLAGGG [MYPC3_268_280, kinase substrate microarray peptide …] | P (Signal greater than 5% of the highest signal was defined as positive (P)) | P (Signal greater than 5% of the highest signal was defined as positive (P)) | P (Signal greater than 5% of the highest signal was defined as positive (P)) | significantly O-GlcNAcylated by all three isoforms OGT | 
4 | MLRGRSLSVTSLG [GYS2_1_13, kinase substrate microarray peptide …] | P (Signal greater than 5% of the highest signal was defined as positive (P)) | P (Signal greater than 5% of the highest signal was defined as positive (P)) | P (Signal greater than 5% of the highest signal was defined as positive (P)) | significantly O-GlcNAcylated by all three isoforms OGT | 
5 | O=C(O)C1CC(=O)N(CCC23CC4CC(CC(C4)C2)C3)C(=Nc2ccc(Cl)cc2)S1 (stereo not shown) [ST045849, 3-(2-adamantanylethyl)-2-[(4-chlorophenyl)azamethylene]-4-oxo-1,3-thiazaperhyd roine-6-carboxylic acid] |  |  |  |  | inhibition of RBL-2 peptide O-GlcNAcylation [8]: 80%; IC50 [9]: ~50 µM
6 | RBL-2_410–422 T417A peptide (from UniProt Q08999 410-422) |  |  |  |  | O-GlcNAcylation of the peptide in solution, UDP-Glo assay (UDP formation) [1]: 20%
